Source: patent US9469631B2 (Boehringer Ingelheim International GmbH, priority 2012, dated 2016)

target: human GPR119 (Homo sapiens (Human), UniProt Q8TDV5); experiment: AlphaScreen cAMP assay in MIN6 cells stably transfected with human GPR119; format: cell-based; details: Min-6/hGPR119 cells, 45 min incubation at room temperature
How it was run: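 MIN6 cells stably expressing human GPR119 were seeded at 10000 cells/well for 24 h. Compounds were then applied in pH 7.4 buffer with 0.5 mM IBMX, 0.1% BSA and 1% DMSO for 45 min at about 20 °C. Intracellular cAMP was measured by AlphaScreen.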

Chain of human GPR119 (Q8TDV5 whole entry): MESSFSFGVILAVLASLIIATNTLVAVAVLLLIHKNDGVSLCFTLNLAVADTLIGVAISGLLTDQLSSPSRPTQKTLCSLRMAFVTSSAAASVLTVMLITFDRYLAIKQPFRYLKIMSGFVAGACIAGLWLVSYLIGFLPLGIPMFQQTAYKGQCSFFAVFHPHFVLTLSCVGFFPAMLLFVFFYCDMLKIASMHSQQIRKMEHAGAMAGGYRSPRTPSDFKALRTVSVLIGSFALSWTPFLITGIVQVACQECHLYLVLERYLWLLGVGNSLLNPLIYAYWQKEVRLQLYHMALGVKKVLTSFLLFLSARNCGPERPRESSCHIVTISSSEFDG

| SMILES | EC50 [nM] |
| --- | --- |
| CC(C)(C)OC(=O)N1CCC(N(C(=O)c2ccc(-c3cnco3)c(F)c2)C2CC2)CC1 [Example 28, 4-[Cyclopropyl-(3-fluoro-4-oxazol-5-yl-benzoyl)-amino]-piperidine-1-carboxylic acid tert-butyl ester] | 8 |
| CC(C)(C)OC(=O)N1CCC(N(C(=O)c2ccc(-c3nnco3)cc2)C2CC2)CC1 [Example 62, 4-[Cyclopropyl-(4-[1,3,4]oxadiazol-2-yl-benzoyl)-amino]-piperidine-1-carboxylic acid tert-butyl ester] | 650 |
| COC(=O)c1ccc(-c2ccc(C(=O)N(C3CC3)C3CCN(C(=O)OC(C)(C)C)CC3)cc2)cn1 [Example 107, 5-{4-[(1-tert-Butoxycarbonyl-piperidin-4-yl)-cyclopropyl-carbamoyl]-phenyl}-pyridine-2-carboxylic acid methyl ester] | 66 |
| CC(C)(C)COC(=O)N1CCC(N(C(=O)c2ccc(-c3cnco3)cc2)C2CC2)CC1 [Example 121, 4-[Cyclopropyl-(4-oxazol-5-yl-benzoyl)-amino]-piperidine-1-carboxylic acid 2,2-dimethyl-propyl ester] | 45 |
| CNC(=O)Nc1nc(-c2ccc(C(=O)N(C3CC3)C3CCN(C(=O)OC(C)(C)C)CC3)cc2)ns1 [Example 73, 4-(Cyclopropyl-{4-[5-(3-methyl-ureido)-[1,2,4]thiadiazol-3-yl]-benzoyl}-amino)-piperidine-1-carboxylic acid tert-butyl ester] | 500 |
| C[C@H]1CN(C(=O)OC(C)(C)C)CC[C@H]1N(C(=O)c1ccc(-c2cnco2)cc1)C1CC1 (single isomer, unassigned) [Example 47] | 855 |

target: mutant form of the human GPR119 receptor (Homo sapiens (Human), UniProt Q8TDV5, S329A/T327A); experiment: LANCE cAMP-384 assay in HEK293 cells stably expressing a mutant form of human GPR119; format: cell-based; details: 20 min at 37° C.
Sequence (Q8TDV5 other isoform, or with tags, fused parts or gaps T327A/S329A): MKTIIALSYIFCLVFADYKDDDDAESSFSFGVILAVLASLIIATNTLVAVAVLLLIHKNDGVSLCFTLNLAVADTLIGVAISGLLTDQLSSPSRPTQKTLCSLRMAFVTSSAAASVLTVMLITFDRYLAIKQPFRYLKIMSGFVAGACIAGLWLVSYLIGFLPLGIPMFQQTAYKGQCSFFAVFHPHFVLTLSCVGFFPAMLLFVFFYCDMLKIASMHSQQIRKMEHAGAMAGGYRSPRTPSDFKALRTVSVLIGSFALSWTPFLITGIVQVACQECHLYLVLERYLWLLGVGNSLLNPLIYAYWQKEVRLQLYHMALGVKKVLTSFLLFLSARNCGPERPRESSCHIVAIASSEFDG

| SMILES | EC50 [nM] |
| --- | --- |
| CC(C)OC(=O)N1CC[C@H](N(C(=O)c2ccc(-n3cncn3)c(F)c2)C2CC2)[C@H](F)C1 (single isomer, unassigned) [Example 48] | 42 |
| CC(C)OC(=O)N1CC[C@@H](N(C(=O)c2ccc(-n3cncn3)c(F)c2)C2CC2)[C@@H](F)C1 (single isomer, unassigned) [Example 50] | 1020 |
| CC(C)OC(=O)N1CCC(N(C(=O)c2ccc(-n3cncn3)c(F)c2)C2CC2)CC1 [Example 49, 4-[Cyclopropyl-(3-fluoro-4-[1,2,4]triazol-1-yl-benzoyl)-amino]-piperidine-1-carboxylic acid isopropyl ester] | 338 |
| Cc1nccn1-c1ccc(C(=O)N(C2CC2)C2CCN(C(=O)OC(C)C)CC2)cc1 [Example 51, 4-{Cyclopropyl-[4-(2-methyl-imidazol-1-yl)-benzoyl]-amino}-piperidine-1-carboxylic acid isopropyl ester] | 1580 |
